Results published in ChEMBL document CHEMBL1208670, “Synthesis, characterization and antimicrobial studies of 2-(4-methoxy-phenyl)-5-methyl-4-(2-arylsulfanyl-ethyl)-2,4-dihydro-[1,2,4] triazolo-3-ones and their corresponding sulfones” (2010).
≈ marks a conversion by molar mass, not a printed value.

Tests used:
Assay type in all cases: functional
[1] = system: Aspergillus flavus; assay: Antifungal activity against Aspergillus flavus by twofold serial dilution method
[2] = system: Rhizopus arrhizus; assay: Antifungal activity against Rhizopus oryzae by twofold serial dilution method
[3] = system: Candida albicans; assay: Antifungal activity against Candida albicans by twofold serial dilution method
[4] = system: Bacillus subtilis; assay: Antibacterial activity against Bacillus subtilis by twofold serial dilution method
[5] = system: Staphylococcus epidermidis; assay: Antibacterial activity against Staphylococcus epidermidis by twofold serial dilution method
[6] = system: Aspergillus niger; assay: Antifungal activity against Aspergillus niger by twofold serial dilution method
[7] = system: Saccharomyces cerevisiae; assay: Antifungal activity against Saccharomyces cerevisiae by twofold serial dilution method
[8] = system: Pseudomonas aeruginosa; assay: Antibacterial activity against Pseudomonas aeruginosa by twofold serial dilution method
[9] = system: Staphylococcus aureus; assay: Antibacterial activity against Staphylococcus aureus by twofold serial dilution method
[10] = system: Escherichia coli; assay: Antibacterial activity against Escherichia coli by twofold serial dilution method

Row | Compound | MIC [1] [µg/mL] | MIC [2] [µg/mL] | MIC [3] [µg/mL] | MIC [4] [µg/mL] | MIC [5] [µg/mL] | MIC [6] [µg/mL] | MIC [7] [µg/mL] | MIC [8] [µg/mL] | MIC [9] [µg/mL] | MIC [10] [µg/mL]
1 | COc1ccc(-n2nc(C)n(CCS(=O)(=O)c3cccc(F)c3)c2=O)cc1 | 75 (≈ 192 µM) | 37.5 (≈ 95.8 µM) | 150 (≈ 383 µM) | 75 (≈ 192 µM) | 37.5 (≈ 95.8 µM) | 37.5 (≈ 95.8 µM) | 150 (≈ 383 µM) | 150 (≈ 383 µM) | 18.8 (≈ 47.9 µM) | 9.38 (≈ 24 µM)
2 | C[C@@H]1[C@H](O)[C@@H](C)/C=C/C=C/C=C/C=C/C=C/C=C/C=C/[C@H](O[C@@H]2O[C@H](C)[C@@H](O)[C@H](N)[C@@H]2O)C[C@@H]2O[C@](O)(C[C@@H](O)C[C@@H](O)[C@H](O)CC[C@@H](O)C[C@@H](O)CC(=O)O[C@H]1C)C[C@H](O)[C@H]2C(=O)O [AMPHOTERICIN B] | 6.25 (≈ 6.76 µM) | 1.56 (≈ 1.69 µM) | 6.25 (≈ 6.76 µM) |  |  | 1.56 (≈ 1.69 µM) | 6.25 (≈ 6.76 µM) |  |  | 
3 | COc1ccc(-n2nc(C)n(CCSc3nnc(-c4ccc(Cl)cc4)o3)c2=O)cc1 | 150 (≈ 338 µM) | 150 (≈ 338 µM) | 150 (≈ 338 µM) | 150 (≈ 338 µM) | 150 (≈ 338 µM) | 150 (≈ 338 µM) | 150 (≈ 338 µM) | 150 (≈ 338 µM) | 75 (≈ 169 µM) | 150 (≈ 338 µM)
4 | COc1ccc(-n2nc(C)n(CCS(=O)(=O)c3cccc(C(F)(F)F)c3)c2=O)cc1 | 75 (≈ 170 µM) | 75 (≈ 170 µM) | 150 (≈ 340 µM) | 37.5 (≈ 85 µM) | 75 (≈ 170 µM) | 37.5 (≈ 85 µM) | 150 (≈ 340 µM) | 18.8 (≈ 42.5 µM) | 18.8 (≈ 42.5 µM) | 37.5 (≈ 85 µM)
5 | COc1ccc(-n2nc(C)n(CCS(=O)(=O)c3ccccc3)c2=O)cc1 | 150 (≈ 402 µM) | 150 (≈ 402 µM) | 150 (≈ 402 µM) | 150 (≈ 402 µM) | 75 (≈ 201 µM) | 150 (≈ 402 µM) | 150 (≈ 402 µM) | 75 (≈ 201 µM) | 37.5 (≈ 100 µM) | 150 (≈ 402 µM)
6 | CN[C@@H]1[C@H](O[C@H]2[C@H](O[C@H]3[C@H](O)[C@@H](O)[C@H](N=C(N)N)[C@@H](O)[C@@H]3N=C(N)N)O[C@@H](C)[C@]2(O)C=O)O[C@@H](CO)[C@H](O)[C@H]1O [STREPTOMYCIN] |  |  |  | 6.25 (≈ 10.7 µM) | 1.56 (≈ 2.69 µM) |  |  | 3.12 (≈ 5.37 µM) | 1.56 (≈ 2.68 µM) | 3.12 (≈ 5.37 µM)
7 | COc1ccc(-n2nc(C)n(CCSc3ccccc3F)c2=O)cc1 | 150 (≈ 417 µM) | 9.75 (≈ 27.1 µM) | 37.5 (≈ 104 µM) | 37.5 (≈ 104 µM) | 150 (≈ 417 µM) | 150 (≈ 417 µM) | 150 (≈ 417 µM) | 37.5 (≈ 104 µM) | 9.75 (≈ 27.1 µM) | 75 (≈ 209 µM)
8 | COc1ccc(-n2nc(C)n(CCSc3cccc(F)c3)c2=O)cc1 | 150 (≈ 417 µM) | 37.5 (≈ 104 µM) | 150 (≈ 417 µM) | 150 (≈ 417 µM) | 75 (≈ 209 µM) | 150 (≈ 417 µM) | 150 (≈ 417 µM) | 37.5 (≈ 104 µM) | 37.5 (≈ 104 µM) | 150 (≈ 417 µM)
9 | COc1ccc(-n2nc(C)n(CCSc3ccc(Br)cc3)c2=O)cc1 | 75 (≈ 178 µM) | 75 (≈ 178 µM) | 150 (≈ 357 µM) | 75 (≈ 178 µM) | 150 (≈ 357 µM) | 75 (≈ 178 µM) | 150 (≈ 357 µM) | 75 (≈ 178 µM) | 150 (≈ 357 µM) | 150 (≈ 357 µM)
10 | COc1ccc(-n2nc(C)n(CCSc3ccc(N)cc3)c2=O)cc1 | 75 (≈ 210 µM) | 37.5 (≈ 105 µM) | 150 (≈ 421 µM) | 75 (≈ 210 µM) | 75 (≈ 210 µM) | 37.5 (≈ 105 µM) | 150 (≈ 421 µM) | 150 (≈ 421 µM) | 75 (≈ 210 µM) | 150 (≈ 421 µM)
11 | COc1ccc(-n2nc(C)n(CCSc3ccccc3)c2=O)cc1 | 75 (≈ 220 µM) | 75 (≈ 220 µM) | 150 (≈ 439 µM) | 75 (≈ 220 µM) | 37.5 (≈ 110 µM) | 37.5 (≈ 110 µM) | 150 (≈ 439 µM) | 75 (≈ 220 µM) | 75 (≈ 220 µM) | 37.5 (≈ 110 µM)
12 | COc1ccc(-n2nc(C)n(CCSc3ccc(F)cc3)c2=O)cc1 | 150 (≈ 417 µM) | 150 (≈ 417 µM) | 150 (≈ 417 µM) | 150 (≈ 417 µM) | 75 (≈ 209 µM) | 150 (≈ 417 µM) | 150 (≈ 417 µM) | 75 (≈ 209 µM) | 75 (≈ 209 µM) | 150 (≈ 417 µM)
13 | COc1ccc(-n2nc(C)n(CCS(=O)(=O)c3ccc(Br)cc3)c2=O)cc1 | 75 (≈ 166 µM) | 37.5 (≈ 82.9 µM) | 150 (≈ 332 µM) | 75 (≈ 166 µM) | 150 (≈ 332 µM) | 37.5 (≈ 82.9 µM) | 150 (≈ 332 µM) | 150 (≈ 332 µM) | 9.38 (≈ 20.7 µM) | 150 (≈ 332 µM)
14 | COc1ccc(-n2nc(C)n(CCSc3cccc(OC)c3)c2=O)cc1 | 75 (≈ 202 µM) | 37.5 (≈ 101 µM) | 150 (≈ 404 µM) | 18.8 (≈ 50.5 µM) | 150 (≈ 404 µM) | 37.5 (≈ 101 µM) | 150 (≈ 404 µM) | 75 (≈ 202 µM) | 75 (≈ 202 µM) | 18.8 (≈ 50.5 µM)
15 | COc1ccc(-n2nc(C)n(CCSc3cccc(C(F)(F)F)c3)c2=O)cc1 | 150 (≈ 366 µM) | 18.8 (≈ 45.8 µM) | 150 (≈ 366 µM) | 150 (≈ 366 µM) | 150 (≈ 366 µM) | 150 (≈ 366 µM) | 150 (≈ 366 µM) | 75 (≈ 183 µM) | 9.75 (≈ 23.8 µM) | 9.75 (≈ 23.8 µM)
16 | COc1ccc(-n2nc(C)n(CCS(=O)(=O)c3ccc(F)cc3)c2=O)cc1 | 75 (≈ 192 µM) | 75 (≈ 192 µM) | 150 (≈ 383 µM) | 75 (≈ 192 µM) | 37.5 (≈ 95.8 µM) | 37.5 (≈ 95.8 µM) | 150 (≈ 383 µM) | 75 (≈ 192 µM) | 75 (≈ 192 µM) | 37.5 (≈ 95.8 µM)
17 | CC1(C)S[C@@H]2[C@H](NC(=O)Cc3ccccc3)C(=O)N2[C@H]1C(=O)O [PENICILLIN G] |  |  |  | 1.53 (≈ 4.56 µM) | 3.12 (≈ 9.35 µM) |  |  | 12.5 (≈ 37.4 µM) | 6.25 (≈ 18.7 µM) | 7.81 (≈ 23.4 µM)
18 | COc1ccc(-n2nc(C)n(CCS(=O)(=O)c3ccccc3F)c2=O)cc1 | 75 (≈ 192 µM) | 18.8 (≈ 47.9 µM) | 150 (≈ 383 µM) | 150 (≈ 383 µM) | 75 (≈ 192 µM) | 37.5 (≈ 95.8 µM) | 150 (≈ 383 µM) | 37.5 (≈ 95.8 µM) | 37.5 (≈ 95.8 µM) | 150 (≈ 383 µM)
